Experiments:
IGF-1R [1] = biological target: T1, IGF-1R (Homo sapiens, UniProt P08069); assay: Effect on IGF-1R (method not given)
[2] = system: fibroblast growth factor receptor (FGFR); assay: Tyrosine phosphorylation of FGFR in intact FM55 melanoma cells; type: cell-based, human; details: Experiment 3, 0.7 μM, 1 h, control = 100%
Description: (§1) Cells were cultured to subconfluency in 6-cm plates, and then fresh medium containing 10% FBS and the desired compounds were added for 1 h. The cells were then lyzed and subjected to immunoprecipitation using specific antibodies. Immunoprecipitates were resolved by sodium dodecyl sulphate polyacrylamide gel electrophoresis (SDS-PAGE) and transferred to nitro-cellulose membranes and incubated with anti-phosphotyrosine antibody. Antibodies to actin (in cell extract) or IGF-1R beta subunit were used as loading controls. After detection the films were scanned for quantification.
(§2) The isolated cells were then lyzed in 10 ml ice-cold PBSTDS containing protease inhibitors (Carlberg, M., et al., J Biol Chem 271:17453-17462, 1996). 50 μl protein A or G agarose was added in 1 ml sample and incubated for 15 min at 4° C. on an orbital shaker. […] The protein content was determined by a dye-binding assay with a reagent purchased from Bio-Rad. […]
(§3) Following SDS-PAGE the proteins were transferred overnight to nitro-cellulose membranes (Hybond, Amersham, UK) and then blocked for 1 h at room temperature in a solution of 4% skimmed milk powder and 0.02% Tween 20 in PBS, pH 7.5. […] After another 3 washes the membranes were incubated with Streptavidin-labelled horseradish peroxidase for 30 min and then detected using Amersham ECL system (Amersham, UK). […]

[3] = system: platelet-derived growth factor receptor (PDGFR); assay: Tyrosine phosphorylation of PDGFR in intact FM55 melanoma cells; type: cell-based, human; details: Experiment 3, 0.7 μM, 1 h, control = 100%
Description: as §1, §2, §3

[4] = biological target: T2, epidermal growth factor receptor (EGFR) (Homo sapiens, UniProt P00533); assay: Tyrosine phosphorylation of EGFR in intact FM55 melanoma cells; type: cell-based; details: Experiment 3, 0.7 μM, 1 h, control = 100%
T2 construct: endogenous in cells; host or cells: FM55 human melanoma cells
Description: as §1, §2, §3

insulin receptor (IR) = biological target: T3, insulin receptor (IR) (Homo sapiens, UniProt P06213); assay: Tyrosine phosphorylation of IR in intact FM55 melanoma cells; type: cell-based; details: Experiment 3, 0.7 μM, 1 h, control = 100%
T3 construct: endogenous in cells; host or cells: FM55 human melanoma cells
Description: as §1, §2, §3

[5] = system: insulin substrate-1 (IRS-1); assay: Tyrosine phosphorylation of IRS-1 in intact FM55 melanoma cells; type: cell-based, human; details: Experiment 3, 0.7 μM, 1 h, control = 100%
Description: as §1, §2, §3

[6] = biological target: T4, IGF-1R from P6 cell extract (Homo sapiens, UniProt P08069); assay: In vitro tyrosine kinase assay: IGF-1R-catalyzed pTG substrate phosphorylation; type: biochemical; details: cell-free
T4 construct: expressed in transfected cells; host or cells: P6 cell line (embryonic mouse fibroblasts)
Description: (§4) IGF-1R-catalyzed substrate phosphorylation of polyTyrGlu (pTG) was performed essentially as previously described [Parrizas M., et al., see above, and Blum G., et al., see above]. Immunoprecipitated IR from HepG2, IGF-1R from P6 cell extract and immunodepleted supernatant to assay non-IGF-1R tyrosine kinases. The phosphorylated polymer substrate was probed with a purified phosphotyrosine specific monoclonal antibody conjugated to horseradish peroxidase (HARP). Color was developed with HRP chromogenic substrate o-phenylenediamine dihydrochloride (OPD). The color was quantitated by spectrophotometry (BLISA reader) and reflects the relative amount of tyrosine kinase. The precipitate was immunoblotted with antibodies to IGF-1R and IR to verify the presence of the receptor. Serial dilutions were used to assay the optimal conditions with respect to the amount of IGF-1R and IR. The signal was linear for 30 minutes and was a function of IGF-1R concentration up to 75 ng/well. Briefly, 96 well plates (Immunolon, Nunc) were coated overnight at 4° C. with a mouse monoclonal antibody (LabVision) against the beta-subunit of IGF-1R at a concentration of 1 μg/ml. […]
(§5) We isolated the receptor and determined the effects of 4,5-demethylene-deoxypodophyllotoxin on IGF-1R catalyzed substrate tyrosine phosphorylation and IGF-1R autophosphorylation in-vitro. […]

[7] = biological target: epidermal growth factor receptor (Homo sapiens, UniProt P00533); assay: In vitro tyrosine kinase assay: EGFR substrate phosphorylation; type: biochemical; details: cell-free; data not shown
[8] = biological target: T5, insulin receptor (IR from HepG2) (Homo sapiens, UniProt P06213); assay: In vitro tyrosine kinase assay: insulin receptor substrate phosphorylation; type: biochemical; details: cell-free; data not shown
T5 construct: Immunoprecipitated IR from HepG2; endogenous in cells; host or cells: HepG2
Description: as §4, §5

non-IGF-1R kinases = assay: In vitro tyrosine kinase assay: non-IGF-1R kinases (IGF-1R immunodepleted supernatant); type: biochemical; details: cell-free; kinases obtained by immunodepletion of IGF-1R; data not shown
Description: as §4, §5

IGF-1R [9] = biological target: T1, IGF-1R; assay: IGF-1R tyrosine autophosphorylation, sandwich ELISA; type: biochemical; details: cell-free; stronger response by podophyllotoxin
Description: IGF-1R tyrosine autophosphorylation was analysed by a sandwich ELISA assay. Briefly, 96-well plates (Immunolon, Nunc) were coated overnight at 4° C. with 1 μg/well of the monoclonal antibody Ab-5 (LabVision) to the IGF-1R beta subunit. The plates were blocked with 1% BSA in PBS Tween for 1 h, then 80 µg/well of total protein lysate from the P6 cell line was added. As a negative control was used total protein lysate from R-cell line. The investigated compounds were added in tyrosine kinase buffer without ATP at room temperature for 30 min, prior to kinase activation with ATP. Kinase assay was performed using the Sigma kit.
We isolated the receptor and determined the effects of 4,5-demethylene-deoxypodophyllotoxin on IGF-1R catalyzed substrate tyrosine phosphorylation and IGF-1R autophosphorylation in-vitro. […] A stronger response was obtained by podophyllotoxin.
Target sequence in this assay (P08069 31-1367): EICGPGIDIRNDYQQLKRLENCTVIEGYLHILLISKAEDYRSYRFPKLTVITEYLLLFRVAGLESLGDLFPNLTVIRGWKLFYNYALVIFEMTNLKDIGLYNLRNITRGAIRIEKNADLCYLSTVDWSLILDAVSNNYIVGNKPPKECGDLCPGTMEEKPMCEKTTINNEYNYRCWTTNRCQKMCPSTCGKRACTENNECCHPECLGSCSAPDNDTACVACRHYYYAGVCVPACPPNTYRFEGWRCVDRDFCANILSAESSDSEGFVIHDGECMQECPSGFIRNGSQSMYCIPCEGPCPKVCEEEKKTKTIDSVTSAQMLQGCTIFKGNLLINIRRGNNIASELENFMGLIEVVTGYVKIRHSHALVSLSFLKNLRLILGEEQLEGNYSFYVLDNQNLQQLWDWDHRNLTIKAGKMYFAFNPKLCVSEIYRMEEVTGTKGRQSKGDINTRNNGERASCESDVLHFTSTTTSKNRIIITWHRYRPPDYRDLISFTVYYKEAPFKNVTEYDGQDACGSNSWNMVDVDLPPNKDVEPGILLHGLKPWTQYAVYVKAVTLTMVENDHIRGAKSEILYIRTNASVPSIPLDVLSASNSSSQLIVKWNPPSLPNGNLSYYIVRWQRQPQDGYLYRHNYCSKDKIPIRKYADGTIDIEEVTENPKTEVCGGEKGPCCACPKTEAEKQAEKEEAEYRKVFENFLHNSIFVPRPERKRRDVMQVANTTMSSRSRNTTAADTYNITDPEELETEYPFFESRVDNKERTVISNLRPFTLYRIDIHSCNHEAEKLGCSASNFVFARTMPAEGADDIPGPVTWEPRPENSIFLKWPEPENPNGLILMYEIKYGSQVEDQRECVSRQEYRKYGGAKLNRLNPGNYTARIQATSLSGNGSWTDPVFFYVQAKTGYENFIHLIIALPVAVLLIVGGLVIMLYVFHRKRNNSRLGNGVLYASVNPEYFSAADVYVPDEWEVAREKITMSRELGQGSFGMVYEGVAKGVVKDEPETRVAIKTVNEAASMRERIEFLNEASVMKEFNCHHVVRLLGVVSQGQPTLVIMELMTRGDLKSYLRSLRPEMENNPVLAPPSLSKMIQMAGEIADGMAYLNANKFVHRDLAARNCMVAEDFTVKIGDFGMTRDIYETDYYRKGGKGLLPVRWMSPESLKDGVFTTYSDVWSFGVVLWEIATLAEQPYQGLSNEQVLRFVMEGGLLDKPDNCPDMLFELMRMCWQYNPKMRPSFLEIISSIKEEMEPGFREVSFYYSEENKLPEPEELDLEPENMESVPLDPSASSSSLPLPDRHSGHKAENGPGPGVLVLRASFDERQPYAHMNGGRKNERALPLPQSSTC

IGF-1R [10] = biological target: T1, IGF-1R; assay: Tyrosine phosphorylation of IGF-1R in intact FM55 melanoma cells (immunoprecipitation, Western blot); type: cell-based; parameters: endogenous in cells; host or cells: FM55 human melanoma cells; details: 0.7 μM, 1 h; for Level of IGF-1R phosphorylation in intact cells (% OD): Experiment 1, FM55 melanoma cells, control OD = 100%; for Level of phosphorylation in intact cells (% OD), substrate IGF-1R: Experiment 3, FM55 cells, control = 100%
Description: as §1
Target sequence in this assay (P08069 31-1367): as above
The isolated cells were then lyzed in 10 ml ice-cold PBSTDS containing protease inhibitors (Carlberg, M., et al., J Biol Chem 271:17453-17462, 1996). 50 μl protein A or G agarose was added in 1 ml sample and incubated for 15 min at 4° C. on an orbital shaker. After centrifugation for 10 min at 10,000 r/min at 4° C. the supernatant was saved. The protein content was determined by a dye-binding assay with a reagent purchased from Bio-Rad. Bovine serum albumin was used as a standard. 15 μl Protein G Plus agarose and 5 μl anti-IGF-1R were added. After a 3 h incubation at 4° C. on an orbital shaker the precipitate was collected by pulse centrifugation in a micro centrifuge at 14,000×g for 10 s. The supernatant was discarded and the pellet was washed 3 times with PBSTDS.
Protein samples were solved in a 2×-sample buffer containing Laemmli buffer and 0.5% […] and boiled for 5 min at 96° C. Samples were separated by SDS-PAGE with a 4% stacking gel and 7.5% separation gel. Molecular weight markers (Bio Rad, Sweden) were run simultaneously in all experiments.
Following SDS-PAGE the proteins were transferred overnight to nitro-cellulose membranes (Hybond, Amersham, UK) and then blocked for 1 h at room temperature in a solution of 4% skimmed milk powder and 0.02% Tween 20 in PBS, pH 7.5. Incubations with the primary antibodies were performed for 1 h at room temperature, followed by 3 washes with PBS with Tween and incubation with the second antibody for 1 h room temperature. After another 3 washes the membranes were incubated with Streptavidin-labelled horseradish peroxidase for 30 min and then detected using Amersham ECL system (Amersham, UK). The films were scanned by Fluor-S (BioRad).
Melanoma cells (line FM55) were seeded in 6-cm dishes, at a concentration of 10,000 cells/cm2 in Minimal Essential Medium supplemented with 10% fetal calf serum (FCS). […] Phosphorylation of IGF-1R was detected by an anti-phosphotyrosine antibody using Western blotting. […] The intensities are quantified by a scanner, which measures the optical density (OD) of the signals. […]

isolated IGF-1R kinase = isolated IGF-1R kinase (Homo sapiens, UniProt P08069); details: Blum et al., Biochemistry 2000; cited from earlier work
insulin receptor kinase = insulin receptor kinase (Homo sapiens, UniProt P06213); details: Blum et al., Biochemistry 2000; cited from earlier work

T5 sequence (P06213 28-1382): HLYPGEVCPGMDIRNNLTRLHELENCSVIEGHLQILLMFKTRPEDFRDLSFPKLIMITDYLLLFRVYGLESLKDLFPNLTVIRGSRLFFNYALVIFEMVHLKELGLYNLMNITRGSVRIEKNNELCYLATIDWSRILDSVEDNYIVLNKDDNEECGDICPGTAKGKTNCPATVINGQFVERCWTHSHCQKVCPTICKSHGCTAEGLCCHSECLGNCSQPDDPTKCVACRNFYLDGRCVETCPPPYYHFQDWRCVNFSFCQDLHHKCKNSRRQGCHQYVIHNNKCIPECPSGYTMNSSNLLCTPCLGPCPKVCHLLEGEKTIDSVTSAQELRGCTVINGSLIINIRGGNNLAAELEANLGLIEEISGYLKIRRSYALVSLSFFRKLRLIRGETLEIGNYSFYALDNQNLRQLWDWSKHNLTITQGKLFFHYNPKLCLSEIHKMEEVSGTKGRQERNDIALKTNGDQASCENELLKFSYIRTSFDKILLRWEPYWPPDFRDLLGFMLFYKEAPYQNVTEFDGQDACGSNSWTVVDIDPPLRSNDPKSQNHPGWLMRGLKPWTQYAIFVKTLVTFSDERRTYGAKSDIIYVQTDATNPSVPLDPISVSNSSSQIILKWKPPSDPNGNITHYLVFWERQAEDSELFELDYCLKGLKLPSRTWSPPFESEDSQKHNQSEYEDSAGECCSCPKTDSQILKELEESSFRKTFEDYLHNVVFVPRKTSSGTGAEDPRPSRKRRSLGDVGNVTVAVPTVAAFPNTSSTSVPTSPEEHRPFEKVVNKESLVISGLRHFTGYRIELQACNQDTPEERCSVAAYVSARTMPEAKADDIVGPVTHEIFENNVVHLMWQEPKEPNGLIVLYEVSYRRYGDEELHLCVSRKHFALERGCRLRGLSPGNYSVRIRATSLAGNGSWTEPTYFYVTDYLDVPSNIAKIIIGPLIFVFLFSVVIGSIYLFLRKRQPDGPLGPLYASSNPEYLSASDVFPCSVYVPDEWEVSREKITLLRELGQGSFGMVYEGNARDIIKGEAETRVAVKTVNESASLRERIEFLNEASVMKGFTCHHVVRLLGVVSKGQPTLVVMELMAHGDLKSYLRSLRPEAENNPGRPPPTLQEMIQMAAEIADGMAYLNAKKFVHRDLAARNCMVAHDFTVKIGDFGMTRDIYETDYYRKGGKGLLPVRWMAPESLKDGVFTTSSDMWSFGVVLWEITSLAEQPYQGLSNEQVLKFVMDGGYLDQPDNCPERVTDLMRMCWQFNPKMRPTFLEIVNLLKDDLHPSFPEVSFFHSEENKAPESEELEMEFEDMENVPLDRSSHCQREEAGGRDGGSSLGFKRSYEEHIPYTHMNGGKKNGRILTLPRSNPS
T3 sequence (P06213 28-1382): as above
Chain of epidermal growth factor receptor (P00533 25-1210, species assumed): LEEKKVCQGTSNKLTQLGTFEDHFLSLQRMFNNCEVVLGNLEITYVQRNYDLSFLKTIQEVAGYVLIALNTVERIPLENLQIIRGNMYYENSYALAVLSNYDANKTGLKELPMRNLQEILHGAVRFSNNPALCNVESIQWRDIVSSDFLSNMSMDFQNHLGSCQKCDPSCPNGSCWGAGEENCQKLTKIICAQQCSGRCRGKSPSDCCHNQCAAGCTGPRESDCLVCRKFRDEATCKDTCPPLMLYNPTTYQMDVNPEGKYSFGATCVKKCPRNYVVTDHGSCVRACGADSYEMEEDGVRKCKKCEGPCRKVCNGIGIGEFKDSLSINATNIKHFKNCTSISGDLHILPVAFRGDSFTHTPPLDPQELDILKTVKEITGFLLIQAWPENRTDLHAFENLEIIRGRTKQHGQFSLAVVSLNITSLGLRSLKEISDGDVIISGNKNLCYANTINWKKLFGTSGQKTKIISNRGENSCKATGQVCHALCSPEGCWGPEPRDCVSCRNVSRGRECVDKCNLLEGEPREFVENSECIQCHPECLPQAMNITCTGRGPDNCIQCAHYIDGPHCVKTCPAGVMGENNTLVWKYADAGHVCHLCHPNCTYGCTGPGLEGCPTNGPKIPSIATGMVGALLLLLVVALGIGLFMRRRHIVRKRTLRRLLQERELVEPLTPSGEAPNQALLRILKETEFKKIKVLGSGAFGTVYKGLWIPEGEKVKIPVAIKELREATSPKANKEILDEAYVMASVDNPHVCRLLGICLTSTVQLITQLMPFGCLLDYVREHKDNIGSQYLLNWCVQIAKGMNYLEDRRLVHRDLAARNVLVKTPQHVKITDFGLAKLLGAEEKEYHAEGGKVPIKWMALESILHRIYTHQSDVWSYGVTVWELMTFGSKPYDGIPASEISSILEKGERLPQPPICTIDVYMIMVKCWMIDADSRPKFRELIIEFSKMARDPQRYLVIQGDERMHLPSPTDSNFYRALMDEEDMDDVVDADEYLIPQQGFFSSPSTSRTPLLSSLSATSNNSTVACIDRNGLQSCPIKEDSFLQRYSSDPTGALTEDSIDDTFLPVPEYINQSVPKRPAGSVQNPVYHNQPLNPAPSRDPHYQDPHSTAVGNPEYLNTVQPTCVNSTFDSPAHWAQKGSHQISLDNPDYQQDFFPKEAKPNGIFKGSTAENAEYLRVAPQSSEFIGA
T2 sequence (P00533 25-1210): as the sequence (P00533 25-1210, species assumed) above

SMILES | Effect on IGF-1R (IGF-1R [1]) | Level of phosphorylation in intact cells (% OD), substrate FGFR [2] [% OD] | Level of phosphorylation in intact cells (% OD), substrate PDGFR [3] [% OD] | Level of phosphorylation in intact cells (% OD), substrate EGFR [4] [% OD] | Level of phosphorylation in intact cells (% OD), substrate IR (insulin receptor (IR)) [% OD] | Level of phosphorylation in intact cells (% OD), substrate IRS-1 [5] [% OD] | Effect on IGF-1R substrate phosphorylation [6] | Interference with substrate phosphorylation of epidermal growth factor receptor tyrosine kinase [7] | Interference with substrate phosphorylation of insulin receptor tyrosine kinase [8] | Interference with substrate phosphorylation of other non-IGF-1R kinases (non-IGF-1R kinases) | Inhibition of autophosphorylation of IGF-1R in vitro (IGF-1R [9]) | Level of IGF-1R phosphorylation in intact cells (% OD) (IGF-1R [10]) | Level of phosphorylation in intact cells (% OD), substrate IGF-1R (IGF-1R [10]) [% OD] | Decrease of pTG substrate phosphorylation by the IGF-1 receptor ([6]; 0.5 μM) | IC50 (isolated IGF-1R kinase) [nM] | Effect on insulin receptor kinase (insulin receptor kinase)
COc1cc(C2c3cc4c(cc3C(OC3OC5COC(c6ccccc6)OC5C(O)C3O)C3COC(=O)C23)OCO4)cc(OC)c1OC [podophyllotoxin-4,6-O-benzylidene-β-D-glucopyranoside] | completely disappeared | – | – | – | – | – | – | – | – | – | – | – | – | – | – | –
COc1cc([C@@H]2c3cc4c(cc3[C@H](O)[C@H]3COC(=O)[C@H]23)OCO4)cc(OC)c1OC [Podophyllotoxin, podophyllotoxin] | – | 99 | 101 | 102 | 103 | 9 | had only effect on IGF-1R | had only effect on IGF-1R | had only effect on IGF-1R | had only effect on IGF-1R | inhibited | 10 | 12 | – | – | –
COc1cc(C2c3cc(O)c(O)cc3CC3COC(=O)C32)cc(OC)c1OC (stereo not drawn) [4,5-demethylene-deoxypodophyllotoxin] | – | 104 | 99 | 100 | 102 | 70 | – | failed to interfere | failed to interfere | failed to interfere | inhibited | 73 | 65 | about 35% | – | –
N#C/C(=C\c1ccc(O)c(O)c1)C(=O)c1ccc(O)c(O)c1 [tyrphostin AG 538] | – | – | – | – | – | – | – | – | – | – | – | – | – | – | 400 | blocked

From patent US20070123491A1, “Podophyllotoxin derivatives as igf-1r inhibitors” (BIOVITRUM AB, priority 2003, published 2007)
